Legend:
[1] = system: rhabdomyolysis-induced AKI in glycerol-injected mice; assay: Glycerol-induced rhabdomyolysis AKI mouse model with F7 pretreatment; assay type: in vivo, C57BL/6 mice
Protocol: After one week of adoption to the housing conditions, the mice were randomly divided into three groups (n = 8): control, glycerol, and glycerol+HDAC6 inhibitor (F7). For the latter two groups, a single intramuscular injection of 50% glycerol dissolved in 0.9% normal saline (10 μl/g) was divided between bilateral back limbs to induce rhabdomyolysis-induced AKI model. The mice in control group received the same dose of saline injection at the place of glycerol. Before glycerol injection, mice in pretreatment group were orally administrated with F7 (dissolved in DEG and diluted with 0.9% saline) at a dose of 40mg/kg/d (200 μl solution for 28g) for 3 days. For control and glycerol groups, mice were treated with the same dose of saline.
All the mice were euthanized via pentobarbital sodium injection (50 mg/kg, i.p.). Terminal blood samples were collected and serum samples were stored at -80°C. Kidney tissues were divided and respectively removed into 10% phosphate buffered formalin for histological staining, and into liquid nitrogen follows by storage at -80°C for further quantitative analysis and immunofluorescence staining.
The serum level of creatinine kinase (CK), blood urea (UREA) and serum creatinine (sCr) were tested using high performance liquid chromatography (HPLC) by Institute of Drug Clinical Trial and the GCP center of West China Hospital of Sichuan University.
Paraffin-embedded kidney tissue samples were cut into 4-um sections and stained with haematoxylin and erosin (H&E) and periodic acid-Schiff (PAS) staining. These sections were viewed using light microscopy at magnifications of ⊆200 and ⊆400 respectively, and semiquantitative estimation of renal tubular damage was performed on a scale from 0 to 4 to grade the percentage of injured/damaged renal tubules: 0 for 0%, 0.5% for <10%, 1 for 10–25%, 2 for 26–50%, 3 for 51–75% and 4 for 76–100%[22]. At least 10 areas were randomly selected in the cortex per slide.
Kidney tissue samples were mounted in O.C.T. compound medium (Tissue-Tek) for cryosectioning (4 μm). Sections were immediately fixed in 10% buffered formalin, washed, dehydrated and stored at -20°C. Before immunofluorescence staining, the tissue sections were rehydrated and blocked with 10% horse medium (diluted with PBS solution) for 1 hour at room temperature and incubated at 4°C overnight with indicated primary antibodies. Then sections were exposed to second antibodies labeled with Cy5 red or FITC green (Jackson ImmunoResearch Inc., West Grove, PA, United States). The nuclei were counterstained with DAPI (1:500, Life Technologies Corporation, OR, United States). The images were captured with AxioCam HRc digital camera (Carl Zeiss).
Kidney tissue or cultured cell samples were sufficiently lysed in the mixture of RIPA buffer (50 mM Tris (pH7.4), 150 mM NaCl, 1% TritonX-100, 1% sodium deoxycholate, 0.1% SDS) containing 4% cocktail proteinase inhibitor (Roche, Switzerland) on ice. After centrifuged at 13,000 rpm for 15 min at 4°C, supernate of the homogenate were collected for protein quantification. Protein equivalent to 50 ug were loaded into 10–12% SDS-PAGE gels for electrophoretic separation, and then transferred to polyvinylidene difluoride (PVDF) membranes (0.2 μm, Bio-Rad Laboratories, Inc.). After protein blotting, membranes were blocks using 5% non-fat dried milk for 1h at room temperature, then probed with primary antibodies at 4°C overnight, and incubated with secondary antibodies for 1h at room temperature. […]

[2] = molecular target: T1, HDAC6 (Homo sapiens, UniProt Q9UBN7); assay: HDAC enzyme inhibition assay (Ac-peptide-AMC substrate); assay type: biochemical
T1 sequence (Q9UBN7 1-1215): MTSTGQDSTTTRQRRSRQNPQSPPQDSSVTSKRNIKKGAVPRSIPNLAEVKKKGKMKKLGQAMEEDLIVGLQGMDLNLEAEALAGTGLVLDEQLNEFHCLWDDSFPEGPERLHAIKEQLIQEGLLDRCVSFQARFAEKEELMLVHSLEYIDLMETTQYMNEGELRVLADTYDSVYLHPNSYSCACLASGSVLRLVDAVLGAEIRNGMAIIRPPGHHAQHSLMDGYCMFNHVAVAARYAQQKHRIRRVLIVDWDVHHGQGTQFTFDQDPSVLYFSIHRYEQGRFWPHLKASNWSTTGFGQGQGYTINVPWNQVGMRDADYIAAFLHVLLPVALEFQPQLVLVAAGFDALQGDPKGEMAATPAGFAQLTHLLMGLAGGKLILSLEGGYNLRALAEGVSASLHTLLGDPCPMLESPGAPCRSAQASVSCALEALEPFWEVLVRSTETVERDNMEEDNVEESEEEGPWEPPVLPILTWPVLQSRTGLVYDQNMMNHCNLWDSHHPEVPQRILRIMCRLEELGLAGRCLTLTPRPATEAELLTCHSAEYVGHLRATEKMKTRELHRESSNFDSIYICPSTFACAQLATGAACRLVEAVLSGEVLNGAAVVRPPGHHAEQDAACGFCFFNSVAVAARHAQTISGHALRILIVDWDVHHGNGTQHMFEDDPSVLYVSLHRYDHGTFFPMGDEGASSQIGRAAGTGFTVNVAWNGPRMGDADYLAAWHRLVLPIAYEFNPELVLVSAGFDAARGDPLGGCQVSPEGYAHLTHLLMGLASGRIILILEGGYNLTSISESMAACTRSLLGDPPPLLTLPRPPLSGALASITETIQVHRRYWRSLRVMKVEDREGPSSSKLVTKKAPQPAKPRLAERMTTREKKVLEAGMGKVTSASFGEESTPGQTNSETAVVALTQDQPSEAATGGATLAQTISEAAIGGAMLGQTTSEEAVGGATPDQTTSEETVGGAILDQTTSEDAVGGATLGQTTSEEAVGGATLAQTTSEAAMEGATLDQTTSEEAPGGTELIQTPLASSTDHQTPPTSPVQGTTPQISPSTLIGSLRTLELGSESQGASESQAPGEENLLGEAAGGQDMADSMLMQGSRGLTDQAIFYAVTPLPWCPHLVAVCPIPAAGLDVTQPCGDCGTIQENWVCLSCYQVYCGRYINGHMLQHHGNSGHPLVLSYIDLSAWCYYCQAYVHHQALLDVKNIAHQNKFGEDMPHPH
Protocol: (§1) HDACs inhibition assay of F7 was performed utilizing 4-amino-7-methylcoumarin (AMC) labeled Ac-peptide (Ac-peptide-AMC) substrates, a service provided by Chempartner Company (Shanghai, China).
(§2) This assay was performed was performed utilizing 4-amino-7-methylcoumarin (AMC) labeled Ac-peptide (Ac-peptide-AMC) substrates, a service provided by Chempartner Company (Shanghai, China).

[3] = molecular target: HDAC5 (Homo sapiens, UniProt Q9UQL6); assay: as above; assay type: biochemical
Chain of HDAC5 (Q9UQL6 whole entry, species assumed): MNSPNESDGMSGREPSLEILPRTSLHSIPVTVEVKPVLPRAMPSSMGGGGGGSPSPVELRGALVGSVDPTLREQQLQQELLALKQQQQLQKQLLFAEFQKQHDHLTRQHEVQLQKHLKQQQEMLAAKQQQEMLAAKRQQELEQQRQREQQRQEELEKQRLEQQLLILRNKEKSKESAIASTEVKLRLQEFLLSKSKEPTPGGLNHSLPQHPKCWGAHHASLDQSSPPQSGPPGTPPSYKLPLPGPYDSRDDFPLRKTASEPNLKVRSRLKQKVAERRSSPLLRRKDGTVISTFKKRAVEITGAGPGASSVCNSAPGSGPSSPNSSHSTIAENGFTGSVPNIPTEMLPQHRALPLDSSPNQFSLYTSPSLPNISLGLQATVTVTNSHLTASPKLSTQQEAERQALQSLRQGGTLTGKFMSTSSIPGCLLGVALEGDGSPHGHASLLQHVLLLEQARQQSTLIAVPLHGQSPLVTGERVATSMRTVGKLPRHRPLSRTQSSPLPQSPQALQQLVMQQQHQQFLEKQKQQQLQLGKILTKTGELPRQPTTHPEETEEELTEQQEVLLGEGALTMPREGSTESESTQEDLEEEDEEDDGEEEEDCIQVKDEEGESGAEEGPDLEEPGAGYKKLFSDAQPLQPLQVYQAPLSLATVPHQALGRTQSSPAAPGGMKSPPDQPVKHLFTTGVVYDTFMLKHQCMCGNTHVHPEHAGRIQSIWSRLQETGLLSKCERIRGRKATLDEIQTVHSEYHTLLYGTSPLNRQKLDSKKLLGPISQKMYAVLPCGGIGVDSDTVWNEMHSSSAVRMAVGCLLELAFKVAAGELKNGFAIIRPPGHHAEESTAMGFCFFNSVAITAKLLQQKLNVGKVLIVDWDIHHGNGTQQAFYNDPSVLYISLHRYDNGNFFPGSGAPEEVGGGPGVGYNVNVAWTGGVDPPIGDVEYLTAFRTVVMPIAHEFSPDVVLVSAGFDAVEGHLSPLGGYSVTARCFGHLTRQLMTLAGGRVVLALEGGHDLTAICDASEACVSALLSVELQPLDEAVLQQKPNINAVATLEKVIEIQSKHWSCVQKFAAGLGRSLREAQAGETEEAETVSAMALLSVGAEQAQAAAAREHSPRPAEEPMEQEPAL
Protocol: as §1, §2

[4] = glycerol+F7 vs glycerol group, F7 40 mg/kg/d oral for 3 days
[5] = western blot, F7 40 mg/kg/d for 3 days

## Cc1nc(N(C)c2ccc(Oc3ccc(C(=O)NO)cn3)cc2)c2ccccc2n1 [F7, N-hydroxy-6-(4-(methyl(2-methylquinazolin-4-yl)amino)phenoxy)nicotinamide]
[1]; ELISA, F7 40 mg/kg/d for 3 days
  IL-β and TNF-α in serum and kidney lysates: decreased
[1]; F7 40 mg/kg/d for 3 days
  NGAL expression in tubules (immunofluorescence staining): largely diminished
[1]; F7 40 mg/kg/d oral for 3 days pretreatment
  pathological injuries (tubular damage, H&E and PAS staining): effectively alleviated
[1]; glycerol+F7 group vs control, 24 hours after glycerol injection, F7 40 mg/kg/d oral for 3 days
  Serum creatine kinase (CK): markedly elevated
[1]; [4]
  serum creatinine (sCr): remarkably decreased
  serum urea (UREA): remarkably decreased
[1]; real-time PCR and immunoblot, F7 40 mg/kg/d for 3 days
  NGAL mRNA expression and protein expression: markedly reduced
[1]; real-time PCR, F7 40 mg/kg/d for 3 days
  mRNA level of IL-6 and TNF-α in kidney: significantly decreased
[1]; western blot and immunofluorescence, F7 40 mg/kg/d for 3 days
  expression of HDAC6 in the damaged kidney: significantly inhibited
[1]; [5]
  IκBα phosphorylation in kidney: decreased
  NF-κB p65 phosphorylation in kidney: effectively down-regulated
  acetylation of histone H3 and α-tubulin in kidney: enhanced
  p38 phosphorylation in kidney: effectively inhibited
  proinflammatory cytokines IL-6 and IL-β protein levels in kidney: remarkably down-regulated
  total ERK1/2 expression in kidney: effectively inhibited
[1]; western blot, F7 treatment group
  ERK1/2 phosphorylation in kidney: no significant ERK1/2 phosphorylation reduction
[2]
  HDAC6 inhibition efficacy of F7 compared with 23BB: three times higher
  IC50: 5.8 nM
  selectivity of HDAC6 versus other HDACs: 110-1724 times
[3]
  IC50: > 10000 nM
